Experimental data reported in ChEMBL document CHEMBL1138480, “Discovery of highly potent and selective biphenylacylsulfonamide-based beta3-adrenergic receptor agonists and evaluation of physical properties as potential overactive bladder therapies: part 5” (J Med Chem, 2009).

How the values were obtained:
[1] = Total clearance in Beagle dog at 0.10 mg/kg, iv by cassette assay; type: ADME, organism-based, Canis lupus familiaris; set-up: dose 0.1 mg/kg, route intravenous; settings: in vivo, 0.1 mg/kg
[2] = target: Beta-2 adrenergic receptor (Homo sapiens, UniProt P07550)
Sequence of Beta-2 adrenergic receptor (P07550 whole entry): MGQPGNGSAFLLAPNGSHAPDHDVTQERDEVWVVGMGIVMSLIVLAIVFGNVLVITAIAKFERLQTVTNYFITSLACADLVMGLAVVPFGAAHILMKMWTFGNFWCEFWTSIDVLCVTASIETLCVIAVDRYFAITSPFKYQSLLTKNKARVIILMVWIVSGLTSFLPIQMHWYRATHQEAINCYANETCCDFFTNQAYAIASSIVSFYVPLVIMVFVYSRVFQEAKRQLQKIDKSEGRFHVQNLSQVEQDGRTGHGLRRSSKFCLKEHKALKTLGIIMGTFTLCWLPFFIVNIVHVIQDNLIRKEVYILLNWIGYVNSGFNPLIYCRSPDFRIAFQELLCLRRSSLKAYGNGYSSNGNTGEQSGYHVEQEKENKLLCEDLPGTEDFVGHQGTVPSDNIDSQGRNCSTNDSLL
Description: Agonist activity at human recombinant beta2 adrenergic receptor expressed in CHO cells assessed as cAMP accumulation by enzyme immunoassay

[3] = Total clearance in rat at 0.32 mg/kg, iv by cassette assay; type: ADME, organism-based; set-up: dose 0.32 mg/kg, route intravenous; settings: in vivo
[4] = Terminal half life in rat plasma at 0.32 mg/kg, iv by cassette assay; type: ADME, organism-based; set-up: dose 0.32 mg/kg, route intravenous; settings: read-out: beta t1/2 (converted)
[5] = test system: Canis familiaris; experiment: Inhibition of carbachol-induced increase in intravesical pressure in intraduodenally dosed Beagle dog OAB model for 30 mins measured for 180 mins; type: functional, organism-based; settings: Canis lupus familiaris
[6] = target: Beta-3 adrenergic receptor (Homo sapiens, UniProt P13945); experiment: Agonist activity at human recombinant beta3 adrenergic receptor expressed in CHO cells assessed as cAMP accumulation by enzyme immunoassay; type: functional, cell-based; settings: read-out: EC50
Sequence of Beta-3 adrenergic receptor (Homo sapiens, UniProt P13945) (P13945 whole entry): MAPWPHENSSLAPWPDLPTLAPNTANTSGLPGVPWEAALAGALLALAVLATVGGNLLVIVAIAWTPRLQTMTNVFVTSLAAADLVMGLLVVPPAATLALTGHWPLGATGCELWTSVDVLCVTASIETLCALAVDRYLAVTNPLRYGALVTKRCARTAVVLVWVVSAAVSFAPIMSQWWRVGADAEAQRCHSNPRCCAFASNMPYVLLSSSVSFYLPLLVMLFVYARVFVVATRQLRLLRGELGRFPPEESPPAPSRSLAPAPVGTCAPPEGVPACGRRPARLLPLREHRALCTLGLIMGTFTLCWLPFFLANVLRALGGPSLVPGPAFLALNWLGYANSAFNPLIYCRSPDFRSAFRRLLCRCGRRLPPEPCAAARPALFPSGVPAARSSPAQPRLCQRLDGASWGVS

[7] = Metabolic stability in dog liver microsomes assessed as intrinsic clearance after 120 mins in presence of NADPH; type: ADME, Canis lupus familiaris, Microsome
[8] = Metabolic stability in monkey liver microsomes assessed as intrinsic clearance after 120 mins in presence of NADPH; type: ADME, Macaca mulatta, Microsome; settings: rhesus monkey
[9] = Total clearance in monkey at 0.32 mg/kg, iv by cassette assay; type: ADME, organism-based, Macaca mulatta; set-up: dose 0.32 mg/kg, route intravenous; settings: rhesus monkey, in vivo
[10] = target: Beta-1 adrenergic receptor (Homo sapiens, UniProt P08588)
Sequence of Beta-1 adrenergic receptor (P08588 whole entry): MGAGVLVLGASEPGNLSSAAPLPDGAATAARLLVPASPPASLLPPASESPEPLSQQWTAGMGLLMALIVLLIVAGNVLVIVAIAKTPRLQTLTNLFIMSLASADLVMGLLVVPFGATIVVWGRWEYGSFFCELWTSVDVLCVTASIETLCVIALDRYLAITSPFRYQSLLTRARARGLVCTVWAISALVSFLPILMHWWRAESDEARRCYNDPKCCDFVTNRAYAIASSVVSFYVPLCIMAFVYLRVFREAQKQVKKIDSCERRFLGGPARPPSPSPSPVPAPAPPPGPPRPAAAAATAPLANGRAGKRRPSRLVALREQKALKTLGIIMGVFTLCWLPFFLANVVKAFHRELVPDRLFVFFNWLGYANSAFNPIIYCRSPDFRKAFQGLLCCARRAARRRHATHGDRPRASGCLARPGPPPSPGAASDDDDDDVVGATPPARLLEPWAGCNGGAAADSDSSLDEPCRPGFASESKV
Description: Agonist activity at human recombinant beta-1 adrenergic receptor expressed in CHO cells assessed as cAMP accumulation by enzyme immunoassay

[11] = Protein binding in Beagle dog serum; type: ADME, cell-free, Canis lupus familiaris; settings: read-out: PPB (converted)
[12] = AUC (0 to 24 hrs) in monkey at 0.32 mg/kg, po by cassette assay; type: ADME, organism-based, Macaca mulatta; set-up: time < 24 hr, dose 0.32 mg/kg, route oral; settings: rhesus monkey, plasma
[13] = test system: Canis familiaris; experiment: Inhibition of carbachol-induced increase in intravesical pressure in Beagle dog OAB model at 10 ug/kg, iv for 30 mins measured for 180 mins; type: functional; settings: Canis lupus familiaris
[14] = Inhibition of KCl-induced tonic contraction in Beagle dog detrusor muscle strips preincubated for 15 mins before KCl challenge; type: functional; settings: Canis lupus familiaris, read-out: EC50
[15] = Terminal half life in Beagle dog plasma at 0.10 mg/kg, iv by cassette assay; type: ADME, organism-based, Canis lupus familiaris; set-up: dose 0.1 mg/kg, route intravenous; settings: 0.1 mg/kg, read-out: beta t1/2 (converted)
[16] = Bioavailability in Beagle dog at 0.10 mg/kg, po and iv by cassette assay; type: ADME, organism-based, Canis lupus familiaris; settings: in vivo, 0.1 mg/kg
[17] = Cmax in monkey at 0.32 mg/kg, po by cassette assay; type: ADME, organism-based, Macaca mulatta; set-up: dose 0.32 mg/kg, route oral; settings: rhesus monkey, in vivo
[18] = AUC (0 to 24 hrs) in Beagle dog at 0.10 mg/kg, po by cassette assay; type: ADME, organism-based, Canis lupus familiaris; set-up: time < 24 hr, dose 0.1 mg/kg, route oral; settings: plasma, 0.1 mg/kg
[19] = Metabolic stability in rat liver microsomes assessed as intrinsic clearance after 120 mins in presence of NADPH; type: ADME, Microsome
[20] = Terminal half life in monkey plasma at 0.32 mg/kg, iv by cassette assay; type: ADME, organism-based, Macaca mulatta; set-up: dose 0.32 mg/kg, route intravenous; settings: rhesus monkey, read-out: beta t1/2 (converted)
[21] = AUC (0 to 24 hrs) in rat at 0.32 mg/kg, po by cassette assay; type: ADME, organism-based; set-up: time < 24 hr, dose 0.32 mg/kg, route oral; settings: plasma
[22] = Bioavailability in rat at 0.32 mg/kg, po and iv by cassette assay; type: ADME, organism-based; settings: in vivo
[23] = target: Beta-3 adrenergic receptor (Canis lupus familiaris, UniProt O02662); experiment: Agonist activity at dog recombinant beta3 adrenergic receptor expressed in CHO cells assessed as cAMP accumulation by enzyme immunoassay; type: functional, cell-based; settings: read-out: EC50
Sequence of Beta-3 adrenergic receptor (Canis lupus familiaris, UniProt O02662) (O02662 whole entry): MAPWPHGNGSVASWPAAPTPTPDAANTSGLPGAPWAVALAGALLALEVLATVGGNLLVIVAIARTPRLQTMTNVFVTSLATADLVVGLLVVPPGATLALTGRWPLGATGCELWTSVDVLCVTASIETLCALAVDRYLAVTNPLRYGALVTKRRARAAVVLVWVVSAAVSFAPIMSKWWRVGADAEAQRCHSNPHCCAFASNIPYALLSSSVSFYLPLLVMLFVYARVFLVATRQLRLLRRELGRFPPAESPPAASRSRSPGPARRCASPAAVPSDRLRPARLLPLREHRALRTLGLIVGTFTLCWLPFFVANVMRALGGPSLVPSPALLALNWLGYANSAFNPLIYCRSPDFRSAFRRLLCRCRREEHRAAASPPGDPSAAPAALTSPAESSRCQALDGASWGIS

[24] = Cmax in Beagle dog at 0.10 mg/kg, po by cassette assay; type: ADME, organism-based, Canis lupus familiaris; set-up: dose 0.1 mg/kg, route oral; settings: in vivo, 0.1 mg/kg
[25] = Bioavailability in monkey at 0.32 mg/kg, po and iv by cassette assay; type: ADME, organism-based, Macaca mulatta; settings: rhesus monkey, in vivo
[26] = Cmax in rat at 0.32 mg/kg, po by cassette assay; type: ADME, organism-based; set-up: dose 0.32 mg/kg, route oral; settings: in vivo
[27] = Total clearance in Beagle dog at 0.10 mg/kg, iv; settings: in vivo, 0.1 mg/kg
[28] = Bioavailability in Beagle dog at 0.10 mg/kg, po and iv; type: ADME, organism-based, Canis lupus familiaris; settings: in vivo, 0.1 mg/kg
[29] = Cmax in Beagle dog at 0.10 mg/kg, po; type: ADME, organism-based, Canis lupus familiaris; set-up: dose 0.1 mg/kg, route oral; settings: in vivo, 0.1 mg/kg
[30] = Terminal half life in Beagle dog at 0.10 mg/kg, po; type: ADME, organism-based, Canis lupus familiaris; set-up: dose 0.1 mg/kg, route oral; settings: in vivo, 0.1 mg/kg, read-out: beta t1/2 (converted)
[31] = AUC (0 to 24 hrs) in Beagle dog at 0.10 mg/kg, po; type: ADME, organism-based, Canis lupus familiaris; set-up: time < 24 hr, dose 0.1 mg/kg, route oral; settings: plasma, 0.1 mg/kg
[32] = Ratio of EC50 for inhibition of KCl-induced tonic contraction in anesthetized Beagle dog detrusor muscle strip to EC50 for dog recombinant beta3 adrenergic receptor expressed in CHO cells; set-up: species or system Canis lupus familiaris
[33] = Metabolic stability in human liver microsomes assessed as intrinsic clearance after 120 mins in presence of NADPH; type: ADME, Microsome

clearance [1] [mL/min/kg]	EC50 [2] [nM]	clearance [3] [mL/min/kg]	half-life [4] [h]	EC50 [5] [nM]	EC50 [6] [nM]	clearance [9] [mL/min/kg]	EC50 [10] [nM]	fraction unbound [11]	AUC(0-t) at 24 h [12] [ng·h/mL]	EC50 [14] [nM]	half-life [15] [h]	bioavailability [16] [%]	Cmax [17] [ng/mL]	AUC(0-t) at 24 h [18] [ng·h/mL]	CLint scaled [19] [mL/min/kg]	half-life [20] [h]	AUC(0-t) at 24 h [21] [ng·h/mL]	SMILES	ED50 [5] [mg/kg]	inhibition in vivo at 0.01 mg/kg [13] [%]	further results
7.5	> 10000	16.9	4.1	7.1	0.6	25.9	260	0.1	19.3	1.2	6.3	45	2.7	95.8	36	3.1	60.9	CC(C)Nc1cc(-c2ccc(CCNC[C@H](O)c3ccccc3)cc2)ccc1C(=O)NS(C)(=O)=O.Cl.Cl	0.0349	> 70	CLint scaled [7]: 3.3 mL/min/kg; CLint scaled [8]: 5.4 mL/min/kg; bioavailability [22]: 20%; EC50 [23]: 1.1 nM; Cmax [24]: 8.6 ng/mL; bioavailability [25]: 10%; Cmax [26]: 14.9 ng/mL
2.9	> 10000	19.6	2.3	8.2	0.32	9.2	> 1000	0.1	143	11.4	4.3	75	15.7	441	84.3	5.8	108	CC(C)Sc1cc(-c2ccc(CCNC[C@H](O)c3ccccc3)cc2)ccc1C(=O)NS(C)(=O)=O.Cl	0.0145	> 70	clearance [27]: 5.1 mL/min/kg; bioavailability [28]: 62%; bioavailability [22]: 41%; EC50 [23]: 0.68 nM; Cmax [24]: 39.8 ng/mL; bioavailability [25]: 24%; Cmax [29]: 18.2 ng/mL; half-life [30]: 4.8 h; Cmax [26]: 9.9 ng/mL; AUC(0-t) at 24 h [31]: 215 ng·h/mL
3.2	> 10000	17.1	3	26.5	0.13	7.5	800	0.17	272	62	5.5	81	35.1	385	46.9	4.7	72.2	CS(=O)(=O)NC(=O)c1ccc(-c2ccc(CCNC[C@H](O)c3cccnc3)cc2)cc1OC1CCCCC1.Cl.Cl	0.0162	> 70	Ratio EC50 [32]: >50; CLint scaled [8]: 3.4 mL/min/kg; bioavailability [22]: 25%; EC50 [23]: 1.4 nM; Cmax [24]: 34.5 ng/mL; CLint scaled [33]: 3.5 mL/min/kg; bioavailability [25]: 38%; Cmax [26]: 17 ng/mL
